Experiment [1] concerns the target T1, FAK (Homo sapiens (Human), UniProt Q05397). The experiment can be described thus: FAK Kinase Assay (TR-FRET, LanthaScreen). The experiment is classed as biochemical. As to conditions: FAK 1 nM, ATP 6.8 μM, fluorescein-polyGT 0.2 μM, 30 min; read-out: IC50, FAK Inhibition. The method, then: The inhibitory activity of a compound against FAK was determined in a buffer containing 5 mM HEPES, pH 7.5, 0.01% Triton, 0.5 mM EGTA, and 0.01% BRIJ™-35 in a 384-well assay plate. The assay was carried out in the presence of the FAK at 1 nM and ATP at 6.8 μM using fluorescein-polyGT (0.2 μM) as an FAK substrate. Each assay mixture was incubated at room temperature for 30 min. A LANTHASCREEN® Tb-PY20 antibody was added to each well to stop the enzymatic reaction. The plate was incubated at room temperature for 60 min before reading on an ENVISION using TR-FRET module (excitation at 340 nm and emission at 520 nm and 495 nm).
Target sequence in this assay (Q05397 whole entry, species assumed): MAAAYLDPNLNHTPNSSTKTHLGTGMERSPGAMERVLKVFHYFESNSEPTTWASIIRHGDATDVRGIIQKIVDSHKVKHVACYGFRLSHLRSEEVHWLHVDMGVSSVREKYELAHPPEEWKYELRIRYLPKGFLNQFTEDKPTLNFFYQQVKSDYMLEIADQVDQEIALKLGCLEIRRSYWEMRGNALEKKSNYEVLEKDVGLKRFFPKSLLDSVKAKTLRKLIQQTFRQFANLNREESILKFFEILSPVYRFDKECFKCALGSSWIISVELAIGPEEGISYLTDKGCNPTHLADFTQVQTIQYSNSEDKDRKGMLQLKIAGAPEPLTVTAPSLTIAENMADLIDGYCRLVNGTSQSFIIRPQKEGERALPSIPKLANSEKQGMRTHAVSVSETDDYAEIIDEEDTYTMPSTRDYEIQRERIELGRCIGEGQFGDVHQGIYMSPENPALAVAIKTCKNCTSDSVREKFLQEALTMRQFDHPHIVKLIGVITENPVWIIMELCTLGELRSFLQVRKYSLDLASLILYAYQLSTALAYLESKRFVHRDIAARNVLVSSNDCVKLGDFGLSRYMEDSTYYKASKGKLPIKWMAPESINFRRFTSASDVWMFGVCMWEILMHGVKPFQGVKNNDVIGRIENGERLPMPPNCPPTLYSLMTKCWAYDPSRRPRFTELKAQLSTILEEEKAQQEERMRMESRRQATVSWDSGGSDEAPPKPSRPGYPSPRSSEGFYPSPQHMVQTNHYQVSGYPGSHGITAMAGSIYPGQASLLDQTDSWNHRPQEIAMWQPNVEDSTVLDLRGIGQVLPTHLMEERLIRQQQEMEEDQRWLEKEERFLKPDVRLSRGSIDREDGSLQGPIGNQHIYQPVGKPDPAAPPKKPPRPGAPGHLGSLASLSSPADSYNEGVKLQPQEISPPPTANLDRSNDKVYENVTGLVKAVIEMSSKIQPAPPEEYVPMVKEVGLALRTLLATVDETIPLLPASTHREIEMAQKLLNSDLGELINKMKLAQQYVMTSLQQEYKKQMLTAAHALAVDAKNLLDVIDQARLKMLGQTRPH

Experiment [2] deals with T1, FAK. In words: FAK Degradation Assay (Western blot, FAK/GAPDH). The experiment is classed as cell-based. Particulars: MDA-MB-231 cells, 24 h treatment, Western blot normalized to DMSO; for DC50: read-out: DC50 (half-maximal degradation concentration), FAK Degradation; for Dmax: read-out: Dmax (maximal degradation), FAK Degradation. The method, then: H2122 (4×10^5), MIA PaCa-2 (6×10s), or MDA-MB-231 cells (6×10^5) per well were seeded into a 6-well plate containing 2 mL of complete culture medium (RPMI-1640 for H2122 and MDA-MB-231, and DMEM/F12 for MIA PaCa-2, supplemented with 10% FBS and 1% penicillin/streptomycin). The cells were cultured overnight at 37° C. in the presence of 5% C02 before treated with a compound in a series of concentrations for 24 h. The cells were then washed with ice-cold Dulbecco's phosphate-buffered saline (DPBS). A radioimmuno-precipitation assay (RIPA) buffer was added to lyse the cells on ice for 20 min. The cells were then scrapped using cell scraper and collected in a 1.5 mL tube, which was centrifuged at 14,000 g and 4° C. for 15 min. The supernatant was collected and the total protein concentration of each sample was determined using a PIERCE™ BCA protein assay kit. The supernatant was diluted to the same protein concentration with the RIPA buffer after the BCA assay. Samples of the same protein amount were mixed with 4× a lithium dodecyl sulfate (LDS) sample buffer and boiled at 95° C. for 5 min. The denatured samples were used for electrophoresis.
For Western blot, the same volume containing ˜50 μg protein for each sample was loaded onto 4-12% Bis-Tris protein gel. The gel was run at 80 V for 0.5 h and at 120 V for 1 h. When the electrophoresis was completed, an IBLOT™ 2 gel transfer device was used to transfer FAK and GAPDH proteins at 20 V for 7 min. All the membranes were blocked in 5% nonfat dry milk in a TBST buffer at RT for 1 h and then incubated with primary antibodies (anti-FAK and anti-GAPDH) in a TBST buffer containing 5% BSA at 4° C. overnight. The membranes were washed with the TBST buffer and then incubated with secondary antibodies (goat anti-rabbit IgG H&L for FAK and goat anti-mouse IgG H&L for GAPDH) at room temperature for 1 h. Blots were visualized using an IMAGEQUANT™ LAS-4000. The chemiluminescent signals from ECL™ Western blotting reagents were captured. The band integrated intensity from each 16-bit blot image was used for quantitation. The FAK/GAPDH signal ratios of each sample were normalized using DMSO as a control and the normalized data for each compound were used to obtain its half-maximal degradation concentration (DC50) and maximal degradation (Dmax).
Target sequence in this assay (Q05397 whole entry): as the sequence (Q05397 whole entry, species assumed) above

Regarding `Cc1cc(OCCOCCOCCOc2ccc3c(c2)C(=O)N(C2CCC(=O)NC2=O)C3=O)ccc1Nc1ncc(C(F)(F)F)c(NCc2cccc(N(C)S(C)(=O)=O)c2)n1` (centres unmarked) [Compound A1, N-(3-(((2-((4-(2-(2-(2-((2-(2,6-dioxopiperidin-3-yl)-1,3-dioxoisoindolin-5-yl)oxy)ethoxy)ethoxy)ethoxy)-2-methylphenyl)amino)-5-(trifluoromethyl)pyrimidin-4-yl)-amino)methyl)phenyl)-N-methylmethanesulfonamide], the IC50 at FAK [1] came to 4.5 nM. In addition, on FAK [2], the DC50 stood at 7 nM and the Dmax was found to be 89%.

On to `Cc1cc(OCCOCCOCCOc2ccc3c(c2)C(=O)N(C2CCC(=O)NC2=O)C3=O)ccc1Nc1ncc(C(F)(F)F)c(NCc2cccc(P(C)(C)=O)c2)n1` (centres unmarked) [Compound A3, 5-(2-(2-(2-(4-((4-((3-(Dimethylphosphoryl)benzyl)amino)-5-(trifluoromethyl)-pyrimidin-2-yl)amino)-3-methylphenoxy)ethoxy)ethoxy)ethoxy)-2-(2,6-dioxopiperidin-3-yl)-isoindoline-1,3-dione], for which the IC50 at FAK [1] came to 223 nM. For the same compound, at FAK [2], the DC50 is 1980 nM and the Dmax came out at 100%.

Turning to `CN(c1nccnc1CNc1nc(Nc2ccc(C(=O)NC3CCN(CC4CCN(c5ccc6c(c5)C(=O)N(C5CCC(=O)NC5=O)C6=O)CC4)CC3)cc2)ncc1C(F)(F)F)S(C)(=O)=O` (centres unmarked) [Compound A4, N-(1-((1-(2-(2,6-dioxopiperidin-3-yl)-1,3-dioxoisoindolin-5-yl)piperidin-4-yl)methyl)piperidin-4-yl)-4-((4-(((3-(N-methylmethylsulfonamido)pyrazin-2-yl)methyl)amino)-5-(trifluoromethyl)pyrimidin-2-yl)amino)benzamide], the IC50 on FAK [1] turned out to be 0.4 nM. Also, on FAK [2], the DC50 is 0.5 nM and the Dmax came out at 92%.

For the compound `CN(c1nccnc1CNc1nc(Nc2ccc(C(=O)N3CCC(N4CCN(c5ccc6c(c5)C(=O)N(C5CCC(=O)NC5=O)C6=O)CC4)CC3)cc2)ncc1C(F)(F)F)S(C)(=O)=O` (centres unmarked) [Compound A5, N-(3-(((2-((4-(4-(4-(2-(2,6-dioxopiperidin-3-yl)-1,3-dioxoisoindolin-5-yl)-piperazin-1-yl)piperidine-1-carbonyl)phenyl)amino)-5-(trifluoromethyl)pyrimidin-4-yl)amino)-methyl)pyrazin-2-yl)-N-methylmethanesulfonamide], on FAK [1], the IC50 amounted to 1.8 nM. Further, on FAK [2], the DC50 was found to be 1.4 nM and the Dmax came to 89%.

`CN(c1nccnc1CNc1nc(Nc2ccc(CNC3CCN(CC4CCN(c5ccc6c(c5)C(=O)N(C5CCC(=O)NC5=O)C6=O)CC4)CC3)cc2)ncc1C(F)(F)F)S(C)(=O)=O` (centres unmarked) [Compound A6, N-(3-(((2-((4-(((1-((1-(2-(2,6-Dioxopiperidin-3-yl)-1,3-dioxoisoindolin-5-yl)-piperidin-4-yl)methyl)piperidin-4-yl)amino)methyl)phenyl)amino)-5-(trifluoromethyl)pyrimidin-4-yl)amino)methyl)pyrazin-2-yl)-N-methylmethanesulfonamide]: at FAK [1], the IC50 is 0.39 nM. For the same compound, on FAK [2], the DC50 was 2.5 nM and the Dmax is 99%.

Consider `CN(c1nccnc1CNc1nc(Nc2ccc(CNC3CCN(c4ccc5c(c4)C(=O)N(C4CCC(=O)NC4=O)C5=O)CC3)cc2)ncc1C(F)(F)F)S(C)(=O)=O` (centres unmarked) [Compound A7, N-(3-(((2-((4-(((1-(2-(2,6-Dioxopiperidin-3-yl)-1,3-dioxoisoindolin-5-yl)-piperidin-4-yl)amino)methyl)phenyl)amino)-5-(trifluoromethyl)pyrimidin-4-yl)amino)methyl)-pyrazin-2-yl)-N-methylmethanesulfonamide], for which the IC50 on FAK [1] came to 0.47 nM. Moreover, on FAK [2], the DC50 stood at 0.6 nM and the Dmax was found to be 99%.

As to `CNC(=O)c1ccccc1Nc1nc(Nc2ccc(CCN3CCN(c4ccc5c(c4)C(=O)N(C4CCC(=O)NC4=O)C5=O)CC3)c(F)c2)ncc1C(F)(F)F` (centres unmarked) [Compound A44, 2-((2-((4-(2-(4-(2-(2,6-dioxopiperidin-3-yl)-1,3-dioxoisoindolin-5-yl)piperazin-1-yl)ethyl)-3-fluorophenyl)amino)-5-(trifluoromethyl)pyrimidin-4-yl)amino)-N-methylbenzamide], at FAK [2], the DC50 came out at 0.96 nM and the Dmax turned out to be 92%.

For the compound `COc1cc(CNC2CCN(c3ccc4c(c3)C(=O)N(C3CCC(=O)NC3=O)C4=O)CC2)c(F)cc1Nc1ncc(C(F)(F)F)c(Oc2cccc3c2C(=O)N(C)C3)n1` (centres unmarked) [Compound A52, 2-(2,6-Dioxopiperidin-3-yl)-5-(4-((2-fluoro-5-methoxy-4-((4-((2-methyl-3-oxoisoindolin-4-yl)oxy)-5-(trifluoromethyl)pyrimidin-2-yl)amino)benzyl)amino)piperidin-1-yl)-isoindoline-1,3-dione], on FAK [2], the DC50 turned out to be 0.78 nM and the Dmax amounted to 95%.

As to `CNC(=O)c1ccccc1Nc1cc(Nc2cc(F)c(CNC3CCN(c4ccc5c(c4)C(=O)N(C4CCC(=O)NC4=O)C5=O)CC3)cc2OC)ncc1C(F)(F)F` (centres unmarked) [Compound A54, 2-((2-((4-(((1-(2-(2,6-Dioxopiperidin-3-yl)-1,3-dioxoisoindolin-5-yl)piperidin-4-yl)amino)methyl)-5-fluoro-2-methoxyphenyl)amino)-5-(trifluoromethyl)pyridin-4-yl)amino)-N-methylbenzamide], on FAK [2], the DC50 was determined as 0.98 nM and the Dmax was 96%.

Take `CN1Cc2cccc(Oc3nc(Nc4ccc(CN[C@@H]5CCN(c6ccc7c(c6)C(=O)N(C6CCC(=O)NC6=O)C7=O)C5)c(F)c4)ncc3C(F)(F)F)c2C1=O` (stereo partly drawn) [Compound A57, 2-(2,6-Dioxopiperidin-3-yl)-5-((R)-3-((2-fluoro-4-((4-((2-methyl-3-oxoisoindolin-4-yl)oxy)-5-(trifluoromethyl)pyrimidin-2-yl)amino)benzyl)amino)pyrrolidin-1-yl)isoindoline-1,3-dione]: at FAK [2], the DC50 was 1 nM and the Dmax was 86%.

As for `COc1cc(CN[C@@H]2CCN(c3ccc4c(c3)C(=O)N(C3CCC(=O)NC3=O)C4=O)C2)c(F)cc1Nc1ncc(C(F)(F)F)c(Oc2cccc3c2C(=O)N(C)C3)n1` (stereo partly drawn) [Compound A58, 2-(2,6-Dioxopiperidin-3-yl)-5-((R)-3-((2-fluoro-5-methoxy-4-((4-((2-methyl-3-oxoisoindolin-4-yl)oxy)-5-(trifluoromethyl)pyrimidin-2-yl)amino)benzyl)amino)pyrrolidin-1-yl)isoindoline-1,3-dione], on FAK [2], the DC50 turned out to be 0.9 nM and the Dmax is 84%.

As to `CN(c1nccnc1CNc1nc(Nc2ccc(CNC3CCN(c4ccc(C5CCC(=O)NC5=O)cc4)CC3)cc2)ncc1C(F)(F)F)S(C)(=O)=O` (centres unmarked) [Compound B1, N-(3-(((2-((4-(((1-(4-(2,6-Dioxopiperidin-3-yl)phenyl)piperidin-4-yl)amino)-methyl)phenyl)amino)-5-(trifluoromethyl)pyrimidin-4-yl)amino)methyl)pyrazin-2-yl)-N-methyl-methanesulfonamide], at FAK [2], the DC50 was determined as 1.2 nM and the Dmax worked out at 92%.

With `CNC(=O)c1ccccc1Nc1nc(Nc2ccc(CNC3CCN(c4ccc(C5CCC(=O)NC5=O)cc4)CC3)cc2)ncc1C(F)(F)F` (centres unmarked) [Compound B2, 2-((2-((4-(((1-(4-(2,6-Dioxopiperidin-3-yl)phenyl)piperidin-4-yl)amino)methyl)-phenyl)amino)-5-(trifluoromethyl)pyrimidin-4-yl)amino)-N-methylbenzamide], at FAK [2], the DC50 worked out at 0.2 nM and the Dmax is 98%.

(Values after patent publication US20250214967A1, “FAK DEGRADERS, PHARMACEUTICAL COMPOSITIONS, AND THERAPEUTIC APPLICATIONS” (Berrybio (Shanghai) Limited, priority 2022, published 2025).)
